The results in this text go back to patent publication US10889555B2, “Sulfonamide compound or salt thereof” (Taiho Pharmaceutical Co., Ltd., priority 2016, dated 2021).

SMILES strings stand for the structures.

The test concerns HCC 1806 cells. Description: Cell proliferation inhibitory effect on human breast cancer cell line (crystal violet, 72 hours). Format: cell-based. Conditions: Homo sapiens, HCC1806, 72 h, read-out: Cell growth suppression IC50. How it is done: Human derived breast cancer cell line HCC 1806 cells were daily passaged at a cell density not exceeding 80% in ATCC recommended Roswell Park Memorial Institute medium (RPMI-1640) containing 10% fetal bovine serum (FBS). In order to start the test of cell proliferation inhibitory activity, HCC 1806 cells were suspended in the above medium, after seeing at 180 μL in each well of a 96-well flat bottom plate so that the number of cells per well was 2,000, the cells were cultured at 37° C. for 1 day in an incubator containing 5% carbon dioxide gas. On the next day, the test compound was dissolved in DMSO, and 20 μL of a drug additive solution diluted serially with distilled water to 10 times of the final concentration was added to each well of the culture plate of the cells, and the cells were cultured at 37° C. for 72 hours in an incubator containing 5% carbon dioxide gas. After culturing for 72 hours, 20 μL of glutaraldehyde was added to each well and allowed to stand for 30 minutes, then the plate was washed 10 times with water and was dried. 100 μL of a stain solution (0.05% crystal violet in a 20% methanol solution) was added to each well and allowed to stand for 30 minutes, then the plate was washed 10 times with water and was dried. 100 μL of an extract solution (0.1 N NaH2PO4: 100% ethanol=1:1) was added to each well and mixed, and the mixture was measured at a wavelength of 540 nm using a plate reader (MTP-450 manufactured by Corona Electric Co., Ltd.). The growth inhibition rate was calculated from the following formula, and the concentration (IC50 (μM)) of a test compound inhibiting 50% was determined. Growth inhibition rate (%)={(C−B)−(T−B)}/(C−B)×100
T: Absorbance of well to which test compound was added
C: Absorbance of wells to which no test compound was added
B: Absorbance of wells to which no cell suspension was added
What is called IC50 is the concentration at which inhibition is half-maximal. With `Cc1cc(F)c(F)c([C@@H](C)[C@H](NS(=O)(=O)c2ccc(Cl)cc2C(N)=O)c2n[nH]c(=O)o2)c1C` [Example 13, 5-chloro-2-(N-((1S,2R)-2-(2,3-difluoro-5,6-dimethylphenyl)-1-(5-oxo-4,5-dihydro-1,3,4-oxadiazol-2-yl)propyl)sulfamoyl)benzamide], the IC50 was 310 nM.
In the case of `C[C@H](c1c(F)ccc2ccccc12)[C@H](NS(=O)(=O)c1ccc(Br)cc1C(N)=O)c1n[nH]c(=O)o1` [Example 15, 5-bromo-2-(N-((1S,2R)-2-(2-fluoronaphthalen-1-yl)-1-(5-oxo-4,5-dihydro-1,3,4-oxadiazol-2-yl)propyl)sulfamoyl)benzamide] it was 400 nM; in that of `CCc1ccc(S(=O)(=O)N[C@H](c2n[nH]c(=O)o2)[C@H](C)c2c(F)ccc(C)c2C)c(C(N)=O)c1` [Example 18, 5-Ethyl-2-(N-((1S,2R)-2-(6-fluoro-2,3-dimethylphenyl)-1-(5-oxo-4,5-dihydro-1,3,4-oxadiazol-2-yl)propyl)sulfamoyl)benzamide], 580 nM.
In the case of `Cc1ccc(F)c([C@@H](C)[C@H](NS(=O)(=O)c2ccc(Cl)nc2C(N)=O)c2n[nH]c(=O)o2)c1C` [Example 19, 6-Chloro-3-(N-((1S,2R)-2-(6-fluoro-2,3-dimethylphenyl)-1-(5-oxo-4,5-dihydro-1,3,4-oxadiazol-2-yl)propyl)sulfamoyl)picolinamide] it was 940 nM; in that of `Cc1c(Cl)ccc(F)c1[C@@H](C)[C@H](NS(=O)(=O)c1ccc(Br)cc1C(N)=O)c1n[nH]c(=O)o1` [Example 25, 5-bromo-2-(N-((1S,2R)-2-(3-chloro-6-fluoro 2 methylphenyl)-1-(5-oxo-4,5-dihydro-1,3,4-oxadiazol-2-yl)propyl)sulfamoyl)benzamide], 590 nM.
In the case of `Cc1c(C2CC2)ccc(F)c1[C@@H](C)[C@H](NS(=O)(=O)c1ccc(Cl)cc1C(N)=O)c1n[nH]c(=O)o1` [Example 26, 5-chloro-2-(N-((1S,2R)-2-(3-cyclopropy1-6-fluoro-2-methylphenyl)-1-(5-oxo-4,5-dihydro-1,3,4-oxadiazol-2-yl)propyl)sulfamoyl)benzamide] it was 980 nM; in that of `Cc1c(Br)ccc(F)c1[C@@H](C)[C@H](NS(=O)(=O)c1ccc(Cl)cc1C(N)=O)c1n[nH]c(=O)o1` [Example 30, 2-(N-((1S,2R)-2-(3-bromo-6-fluoro-2-methylphenyl)-1-(5-oxo-4,5-dihydro-1,3,4-oxadiazol-2-yl)propyl)sulfamoyl)-5-chlorobenzamide], 800 nM.
As for `Cc1c(Br)ccc(F)c1[C@@H](C)[C@H](NS(=O)(=O)c1ccc(Br)cc1C(N)=O)c1n[nH]c(=O)o1` [Example 35, 5-bromo-2-(N-((1S,2R)-2-(3-bromo-6-fluoro-2-methylphenyl)-1-(5-oxo-4,5-dihydro-1,3,4-oxadiazol-2-yl)propyl)sulfamoyl)benzamide], the IC50 was 670 nM.
In the case of `Cc1ccc(F)c([C@@H](C)[C@H](NS(=O)(=O)c2cc(C(=O)N(C)C)ccc2C(N)=O)c2n[nH]c(=O)o2)c1C` [Example 37, 3-(N-((1S,2R)-2-(6-fluoro-2,3-dimethylphenyl)-1-(5-oxo-4,5-dihydro-1,3,4-oxadiazol-2-yl)propyl)sulfamoyl)-N1,N1-dimethylterephthalamide] it was 820 nM; in that of `Cc1ccc(F)c([C@@H](C)[C@H](NS(=O)(=O)c2cc(C(=O)N(C)C)c(Cl)cc2C(N)=O)c2n[nH]c(=O)o2)c1C` [Example 39, 2-chloro-5-(N-((1S,2R)-2-(6-fluoro-2,3-dimethylphenyl)-1-(5-oxo-4,5-dihydro-1,3,4-oxadiazol-2-yl)propyl)sulfamoyl)-N1,N1-dimethyl terephthalamide], 230 nM; in that of `Cc1ccc(F)c([C@@H](C)[C@H](NS(=O)(=O)c2cnc(Cl)cc2C(N)=O)c2n[nH]c(=O)o2)c1C` [Example 40, 2-chloro-5-(N-((1S,2R)-2-(6-fluoro-2,3-dimethylphenyl)-1-(5-oxo-4,5-dihydro-1,3,4-oxadiazol-2-yl)propyl)sulfamoyl)isonicotinamide], 590 nM.
For `Cc1ccc(F)c([C@@H](C)[C@H](NS(=O)(=O)c2ccc(C(F)(F)F)cc2C(N)=O)c2n[nH]c(=O)o2)c1C` [Example 41, 2-(N-((1S,2R)-2-(6-fluoro-2,3-dimethylphenyl)-1-(5-oxo-4,5 dihydro-1,3,4-oxadiazol-2-yl)propyl)sulfamoyl)-5-(trifluoromethyl)benzamide] the value was 400 nM; for `[2H]C([2H])([2H])[C@H](c1c(F)ccc(C)c1C)[C@H](NS(=O)(=O)c1ccc(Cl)cc1C(N)=O)c1n[nH]c(=O)o1` [Example 43, 5-chloro-2-[[(1S,2R)-3,3,3-trideuterio-2-(6-fluoro-2,3-dimethylphenyl)-1-(2-oxo-3H-1,3,4-oxadiazol-5-yl)propyl]sulfamoyl]benzamide], 280 nM; for `COc1cc(Cl)ccc1S(=O)(=O)N[C@H](c1n[nH]c(=O)o1)[C@H](C)c1cccc2cccc(C)c12` [Example 71, 4-chloro-2-methoxy-N-((1S,2R)-2-(8-methylnaphthalen-1-yl)-1-(5-oxo-4,5-dihydro-1,3,4-oxadiazol-2-yl)propyl)benzenesulfonamide], 790 nM.
In the case of `COc1cc(Cl)ccc1S(=O)(=O)N[C@H](c1n[nH]c(=O)o1)[C@H](C)c1c(F)ccc2ccccc12` [Example 76, 4-chloro-N-((1S,2R)-2-(2-fluoronaphthalen-1-yl)-1-(5-oxo-4,5-dihydro-1,3,4-oxadiazol-2-yl)propyl)-2-methoxybenzenesulfonamide] it was 440 nM; in that of `COc1cc(Cl)ccc1S(=O)(=O)N[C@H](c1n[nH]c(=O)o1)[C@H](C)c1c(F)ccc(C)c1C` [Example 83, 4-chloro-N-((1S,2R)-2-(6-fluoro-2,3-dimethylphenyl)-1-(5-oxo-4,5-dihydro-1,3,4-oxadiazol-2-yl)propyl)-2-methoxybenzenesulfonamide], 500 nM; in that of `Cc1ccc(F)c([C@@H](C)[C@H](NS(=O)(=O)c2ccc(Cl)cc2-c2ccno2)c2n[nH]c(=O)o2)c1C` [Example 91, 4-chloro-N-((1S,2R)-2-(6-fluoro-2,3-dimethylphenyl)-1-(5-oxo-4,5-dihydro-1,3,4-oxadiazol-2-yl)propyl)-2-(isoxazol-5-yl)benzenesulfonamide], 980 nM.
For `Cc1ccc(F)c([C@@H](C)[C@H](NS(=O)(=O)c2ccc(Cl)c3c2OCC(=O)N3C)c2n[nH]c(=O)o2)c1C` [Example 93, 5-chloro-N-((1S,2R)-2-(6-fluoro-2,3-dimethylphenyl)-1-(5-oxo-4,5-dihydro-1,3,4-oxadiazol-2-yl)propyl)-4-methyl-3-oxo-3,4-dihydro-2H-benzo[b][1,4]oxazine-8-sulfonamide], the IC50 was determined as 280 nM.
In the case of `CCN1CCOc2c(S(=O)(=O)N[C@H](c3n[nH]c(=O)o3)[C@H](C)c3c(F)ccc(C)c3C)ccc(Cl)c21` [Example 94, 5-chloro-4-ethyl-N-((1S,2R)-2-(6-fluoro-2,3-dimethylphenyl)-1-(5-oxo-4,5-dihydro-1,3,4-oxadiazol-2-yl)propyl)-3,4-dihydro-2H-benzo [b][1,4]oxazine-8-sulfonamide] it was 480 nM; in that of `CC(=O)OC1(C)CCOc2c(S(=O)(=O)N[C@H](c3n[nH]c(=O)o3)[C@H](C)c3c(F)ccc(C)c3C)ccc(Cl)c21` (stereo partly drawn) [Example 95, 5-chloro-8-(N-((1S,2R)-2-(6-fluoro-2,3-dimethylphenyl)-1-(5-oxo-4,5-dihydro-1,3,4-oxadiazol-2-yl)propyl)sulfamoyl)-4-methylchroman-4-yl acetate], 140 nM; in that of `CCc1ccc(F)c([C@@H](C)[C@H](NS(=O)(=O)c2ccc(Br)cc2C(N)=O)c2n[nH]c(=O)o2)c1C` [Example 96, 5-bromo-2-(N-((1S,2R)-2-(3-ethyl-6-fluoro-2-methylphenyl)-1-(5-oxo-4,5-dihydro-1,3,4-oxadiazol-2-yl)propyl)sulfamoyl)benzamide], 950 nM.
For `CC(=O)OC1(C)CCOc2c(S(=O)(=O)N[C@H](c3n[nH]c(=O)o3)[C@H](C)c3c(F)ccc(Cl)c3C)ccc(Cl)c21` (stereo partly drawn) [Example 100, 5-chloro-8-(N-((1S,2R)-2-(3-chloro-6-fluoro-2-methylphenyl)-1-(5-oxo-4,5-dihydro-1,3,4-oxadiazol-2-yl)propyl)sulfamoyl)-4-methylchroman-4-yl acetate] the value was 390 nM; for `Cc1ccc(F)c([C@@H](C)[C@H](NS(=O)(=O)c2ccc(Cl)c3c2OCC(=O)N3CC(F)F)c2n[nH]c(=O)o2)c1C` [Example 101, 5-chloro-4-(2,2-difluoroethyl)-N-((1S,2R)-2-(6-fluoro-2,3-dimethylphenyl)-1-(5-oxo-4,5-dihydro-1,3,4-oxadiazol-2-yl)propyl)-3-oxo-3,4-dihydro-2H-benzo[b][1,4]oxazine-8-sulfonamide], 810 nM.
